The test system of series [1] is purified Taenia solium cysteine protease. Nature of the series: Substrate cleavage screen of AFC-linked synthetic substrates (Step II), purified protease. Type of series: biochemical. The settings on record: 1 ug purified protease, 1 ug substrate, Citrate pH 4.9 with 0.01 M cysteine, 18 h, 37 °C. As for the experimental part: In this step, the most efficacious substrate for detection of the cysteine protease (high Kcat substrate) was determined in vitro along with those substrates which were not well cleaved (low kcat substrates). From this point forth, the following conditions refer to all assays: "assay buffer" refers to 0.4 M Citrate, pH 4.9 (the pH optima of the protease). Incubation time was 18 hours at 37°C. These conditions were determined by our preliminary data to be best for kinetic evaluation of the protease. […] The experiments were conducted in […] Borosilicate mini-culture tubes (Fisher Scientific), and a fluorometer (Turner) was employed for detection of AFC cleavage.
Approximately 1 ug (or a proteolytically detectable amount) of the purified target cysteine protease was incubated individually, with 1 ug of each of the available substrates in 500 uL of assay buffer. During this setup, the substrate was pre-incubated in the assay buffer for a short period of time (20 minutes) in order to reach an equilibrated status before the addition of the protease. Cleavage assessments were based upon the property of the protease to cleave synthetic peptide substrates linked at the C-terminus to 7-Amino-4-Trifluoromethyl Coumarin (AFC) as previously described. AFC linked tripeptides, dipeptides, and monopeptides, (with a variety of permutations at P3-P1) were available from Enzyme Systems Products (Livermore, CA), and were used as the source of the subset. Following incubation of enzyme preparations overnight (18 h, 37 °C) with peptide in assay buffer (Citrate, pH 4.9, supplemented with 0.01 M cysteine), free AFC concentrations were measured fluorometrically (excitation 405 nm, emission 505 nm). The proteolytic cleavage released the AFC group, which was measurable as a free molecule by a standard fluorometer and converted into molar quantities, based upon a previously established standard curve. The simplicity of AFC detection by the fluorometer was a key factor which quickened and simplified the procedures.
In the assay, 1 ug of the purified Taenia cysteine protease was added to a saturating amount of Z-Phe-Arg-AFC (4X10^-5 M) in assay buffer. The experiment was conducted in triplicate and repeated at least 5 times until we were certain that variability in AFC cleavage was not statistically significant.
Vmax was calculated for the cleavage of substrates by the purified target protease and Vmax was calculated for substrates cleaved by the crude mix protease using conventional kinetic modeling calculations already described in the art.

In series [2] the test system is T. crassiceps cysts. Type of series: in vivo, Taenia crassiceps. The settings on record: for Percent protection, long-term: BALB/c mice, 5 mice/group, intraperitoneal, treated every day for 30 days post-challenge, left untreated for 5 months, reduction of total cyst number versus controls; for side effects in treated mice, long-term: in vivo.
Series [3] concerns T. crassiceps cysts. Nature of the series: Therapeutic protection study in BALB/c mice. Type of series: in vivo, Taenia crassiceps. The settings on record: inhibitor treatment began two weeks after infection with T. crassiceps cysts. The text has this:
Mice in all groups survived without noticeable side effects (e.g., coat condition, tail dragging or paresis, etc).

Series [4] has as its system normal BALB/c mouse splenocytes. The experiment in a line: Mouse splenocyte proliferation (3H-thymidine incorporation) with inhibitor alone or inhibitor and Con-A. Type of series: cell-based. The settings on record: for proliferative response of splenocytes (3H-thymidine incorporation): inhibitor alone; for responsiveness of splenocytes to Con-A: inhibitor and Con-A; for toxicity to normal BALB/c mouse splenocytes in vitro: preliminary results. On the technique in general: Uptake of a labelled nucleoside into DNA is a usual measure of proliferation.

In series [5] the test system is purified Taenia solium cysteine protease. The experiment in a line: Inhibition assay of protease inactivators against the high Vmax cocktail, EC100 and Ki ranking (Step VII B). It counts as biochemical. The settings on record: for ranking of protease inactivators by EC100: dilution study, nanomolar levels; for % Inhibition of T. solium CP in vitro: concentration not stated in Table 4; for Ki of protease inactivator: nonlinear fitting and Dixon plot, values not reported. The text has this: Once the protease inactivators were synthesized in the organic laboratory, they were to be tested for the lowest efficacious concentrations at which they induced 100% inhibition of the target protease (EC100). The top percent cocktail that was employed in the final vehicle selection step of Step III was employed as the source of competition for the inhibitors. In this case, this was the […] which was comprised of Z-FR-AFC, Z-FAR-AFC, Z-AP-AFC, Z-AAK-AFC, and Z-VLR-AFC. The final result would be a ranking of transition state candidate protease inactivators with a high ranking directly correlating to a low EC100 value. The following steps describe the assay:
Step A: Initial Screening. To set up the test control, each protease inactivator was first incubated with the […] (which provided the final differentiation of vehicles in Step III). To begin with, the protease inactivator was incubated at a concentration of 3 X 10^-9M in 500 ul of assay buffer ([…], pH 4.9 supplemented with 10mM L-cysteine). This concentration was determined, after a series of inhibitor dilutions identified, to be the best inhibitor concentration at which a differentiation in inhibitor potential could be noted. Next, a concentration equal to 4 X 10^-5M for each of the individual cocktail components, was added to the mix. The components were allowed to equilibrate for a period of 30 minutes. Finally, active purified enzyme was added to the tubes at a concentration which was always at least 50 times less than the concentration of the lowest concentration in the mix (to provide saturating conditions.) This concentration varied from purification to purification and the amount added depended upon the yield and specific activity of the purified protease.
Positive controls were set up similarly as described for test controls, except that solvent was added in substitution for the protease inactivator (in a volume equal to the […] volume addition). All of the protease inactivators could be dissolved in dimethylsulfoxide (DMSO), and therefore, this was the solvent of choice. Negative controls were set up by adding the protease inactivator and the cocktail substrates in a tube, without the protease. All potential non-proteolytic induced liberation of AFC was therefore controlled for in this tube (a feature which also insured stability of the AFC substrates, since these substrates will freely liberate AFC when unstable).
All controls were set up in triplicate, and experiments repeated a minimum of five times. The assays were incubated at 37°C, overnight. Percent inhibition was calculated as: % Inhibition = ((AFC positive for ʺSIʺ-AFC negative for ʺSIʺ)-(AFC test-AFC negative for ʺSIʺ))/(AFC positive for ʺSIʺ-AFC negative for ʺSIʺ) × 100 [formula]
Because of this, a dilution study was required in order to determine a viable ranking. Thus, the concentration of each of the protease inactivators was lowered with a dose response setup until the most efficacious concentration for 100% inhibition (EC100) could be determined. […] The final result of the assay was a ranked candidate list of protease inactivators. A lower EC100 was attributable to a higher ranking and vice-versa.
In order to determine Ki, all of the high Vmax cocktail substrates were employed for Ki determination (since Ki of the inhibitor for the enzyme is the same regardless of the substrate). To insure the highest accuracy, Ki was to be determined upon a minimum of at least three of the high Kcat substrates. Nonlinear fitting and the Dixon plot were both employed to determine Ki of the top ranked protease inactivators. A further plot was constructed using either Eadie Hofstee as well as Hanes to determine the mode of inhibition. These methods were used in order to determine the type of inhibition.

The test system of another series is Taenia crassiceps cysts. Nature of the series: Short-term prophylactic protection of BALB/c mice from cysticercosis infection. It counts as in vivo. The settings on record: for % Prophylactic protection of BALB/c mice: pre-injected two days, 10 T. crassiceps cysts/mouse, dosed daily for four weeks, cysts counted after one month, versus untreated controls.
Series [6] deals with purified Taenia solium cysteine protease. Nature of the series: Competitor assay of low Vmax substrates (vehicles) against high Vmax substrate cocktails (Step III), purified protease. Type of series: biochemical. The settings on record: robustness of inhibition.

Residues, ends and D or L forms follow the SMILES beside them. *: point of attachment. AFC = O=c1cc(C(F)(F)F)c2ccc(N*)cc2o1; Cbz = O=C(OCc1ccccc1)*; CH2F = FC*

With Mu-Leu-Tyr-AFC [Mu-LY-AFC], the “cleavage of AFC-linked substrate (Vmax)” value in series [1] is recorded as “not cleaved”; in series [1] (listed as M-LY-AFC), “noncleavable”.

For `CC(C)C[C@H](NC(=O)OCc1ccccc1)C(=O)N[C@@H](CC(C)C)C(=O)N[C@@H](Cc1ccc(O)cc1)C(=O)Nc1ccc2c(C(F)(F)F)cc(=O)oc2c1` [Z-LLY-AFC, Z-Leu-Leu-Tyr-AFC] (Cbz-Leu-Leu-Tyr-{AFC}), the “cleavage of AFC-linked substrate (Vmax)” value in series [1] is reported as “noncleavable”.

On to `CC(C)C[C@H](NC(=O)[C@H](CC(C)C)NC(=O)[C@H](CC(C)C)NC(=O)OCc1ccccc1)C(=O)CF` [Z-LLL-FMK, Z-Leu-Leu-Leu-fluoromethylketone] (Cbz-Leu-Leu-Leu-CH2F), for which, in the series on T. crassiceps cysts [2], the “Percent protection, long-term” value stood at 80% and the “side effects in treated mice, long-term” value is recorded as “no side effects were noted”. In the series with T. crassiceps cysts [3], the “% Therapeutic protection of BALB/c mice” value worked out at 60%. Further, in series [4], the “proliferative response of splenocytes (3H-thymidine incorporation)” value is recorded as “do not induce a proliferative response”, the “responsiveness of splenocytes to Con-A” value is listed as “unaffected” and the “toxicity to normal BALB/c mouse splenocytes in vitro” value is given as “nontoxic”. For the same molecule, the “responsiveness of splenocytes to Con-A” value in series [4] (listed as LLL-FMK) is given as “do not affect the responsiveness”. Moreover, in series [5], the “ranking of protease inactivators by EC100” value was “top inhibitors”, the “% Inhibition of T. solium CP in vitro” value stood at 100% and the “Ki of protease inactivator” value is reported as “lowest Ki values”. Moreover, the “% Prophylactic protection of BALB/c mice” value in the series on Taenia crassiceps cysts came out at 100%. For the same molecule, the “% Prophylactic protection of BALB/c mice” value with Taenia crassiceps cysts (listed as Leucine-Leucine-Leucine-Fluoromethylketone) amounted to 100%.

As to `CC(C)C[C@H](NC(=O)OCc1ccccc1)C(=O)N[C@@H](CC(C)C)C(=O)N[C@@H](CC(C)C)C(=O)Nc1ccc2c(C(F)(F)F)cc(=O)oc2c1` [Z-LLL-AFC, Z-Leu-Leu-Leu-AFC] (Cbz-Leu-Leu-Leu-{AFC}), in series [6], the “percentage drop in inhibition between the 1.4% and the 7.4% cocktail” value is listed as 25%. Moreover, the “cleavage of AFC-linked substrate (Vmax)” value in series [1] is “noncleavable”.

On to `CC(C)C[C@H](NC(=O)OCc1ccccc1)C(=O)N[C@@H](CC(C)C)C(=O)N[C@@H](Cc1ccc(O)cc1)C(=O)CF` [Z-LLY-FMK, Z-Leu-Leu-Tyr-FMK] (Cbz-Leu-Leu-Tyr-CH2F), for which, in the series with T. crassiceps cysts [2], the “Percent protection, long-term” value amounted to 95% and the “side effects in treated mice, long-term” value is “no side effects were noted”. In addition, in series [4], the “proliferative response of splenocytes (3H-thymidine incorporation)” value is listed as “do not induce a proliferative response”, the “responsiveness of splenocytes to Con-A” value was “unaffected” and the “toxicity to normal BALB/c mouse splenocytes in vitro” value is given as “nontoxic”. Also, the “responsiveness of splenocytes to Con-A” value in series [4] (listed as LLY-FMK) is reported as “do not affect the responsiveness”. In series [5], the “ranking of protease inactivators by EC100” value is listed as “top inhibitors”, the “% Inhibition of T. solium CP in vitro” value is 97% and the “Ki of protease inactivator” value is reported as “lowest Ki values”. In the series on Taenia crassiceps cysts (identical prophylactic experiment repeated), the “protection from cysticercosis infection, subsequent repeat of the prophylactic experiment” value is 75%-90%. For the same molecule, the “% Prophylactic protection of BALB/c mice” value in the series with Taenia crassiceps cysts is recorded as 85-97%. For the same molecule, the “% Prophylactic protection of BALB/c mice” value with Taenia crassiceps cysts (listed as Leucine-Leucine-Tyrosine-Fluoromethylketone) is 85-97%. Further, the “side effects / inhibitor toxicity in treated mice, short-term” value with Taenia crassiceps cysts (visual inspection (coat condition, tail dragging or paresis)) is on record as “no mice showed effects of inhibitor toxicity”.

For the origin of these results see EP1276895B1, “METHOD FOR THE IDENTIFICATION OF ACTIVE SITE PROTEASE INACTIVATORS” (THE UNIVERSITY OF GEORGIA RESEARCH FOUNDATION, INC., priority 2000, dated 2001).
